This passage reports Inhibition results from patent US4652551A, “Renin inhibiting compounds” (Abbott Laboratories, priority 1985, dated 1987).

As a reminder, the Inhibition is how much of the control response was suppressed. A lower Inhibition goes with a weak effect.

For this assay, the target named is T1, human renal renin (Homo sapiens, UniProt P00797).
T1 construct: human renal renin, free from acid proteolytic activity; from tissue; host or cells: human kidney (from the word 'renal')
T1 sequence (P00797 67-406): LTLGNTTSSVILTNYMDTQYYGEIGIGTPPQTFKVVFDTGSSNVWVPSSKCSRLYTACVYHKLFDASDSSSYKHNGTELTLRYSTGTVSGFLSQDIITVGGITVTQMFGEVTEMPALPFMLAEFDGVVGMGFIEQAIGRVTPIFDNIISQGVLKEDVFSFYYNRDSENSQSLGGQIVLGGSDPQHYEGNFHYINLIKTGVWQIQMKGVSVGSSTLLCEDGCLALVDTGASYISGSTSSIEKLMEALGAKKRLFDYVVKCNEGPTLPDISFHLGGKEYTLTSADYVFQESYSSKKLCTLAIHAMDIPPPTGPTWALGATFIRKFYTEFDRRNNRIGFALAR
The assay can be described thus: In vitro inhibition of human renal renin (angiotensin I formed, measured by radioimmunoassay). Type of assay: biochemical. The conditions noted are these: human renin substrate (angiotensinogen), 37° C., pH 6.0. How it is done: At the end of the incubation, the amount of angiotensin I formed is measured by radioimmunoassay and the present inhibition of renin is calculated.

Consider `CC(C)CC(NC(=O)C(C)NC(=O)C(Cc1ccccc1)NC(=O)OC(C)(C)C)C(O)CCc1ccccc1` (stereo not drawn) [Example 1C, Boc-Phe-Ala amide of 4-amino-3-hydroxy-6-methyl-1-phenylheptane], for which the Inhibition (at 10^-5 M compound) was 35%.

Compound `CC(C)CCC(O)C(CC(C)C)NC(=O)C(C)NC(=O)C(Cc1ccccc1)NC(=O)OC(C)(C)C` (stereo not drawn) [Example 2C, Boc-Phe-Ala amide of 4-amino-2,8-dimethyl-5-hydroxynonane] yielded an Inhibition (at 10^-5 M compound) of 85%.

Take `CC(C)CCC(O)C(CC(C)C)NC(=O)C(Cc1cnc[nH]1)NC(=O)C(Cc1ccccc1)NC(=O)OC(C)(C)C` (stereo not drawn) [Example 3, Boc-Phe-His amide of 4-amino-2,8-dimethyl-5-hydroxynonane]: the Inhibition (at 10^-5 M compound) was 89%.

`C=CCC(O)C(CC(C)C)NC(=O)C(C)NC(=O)C(Cc1ccccc1)NC(=O)OC(C)(C)C` (stereo not drawn) [Example 4C, Boc-Phe-Ala amide of 5-amino-4-hydroxy-7-methyl-1-octene] had an Inhibition (at 10^-5 M compound) of 48%.

Where the note is “at 10^-5 M compound”, `C=CC(C)(C)C(O)C(CC(C)C)NC(=O)C(C)NC(=O)C(Cc1ccccc1)NC(=O)OC(C)(C)C` (stereo not drawn) [Example 5C, Boc-Phe-Ala amide of 5-amino-4-hyroxy-3,3,7-trimethyl-1-octene] yielded an Inhibition of 7%.

For the setting “at 10^-8 M compound”, `CC(C)CCC(O)C(CC1CCCCC1)NC(=O)C(Cc1cnc[nH]1)NC(=O)C(Cc1ccccc1)NC(=O)OC(C)(C)C` (stereo not drawn) [Example 6C, Boc-Phe-His Amide of 2-Amino-1-cyclohexyl-3-hydroxy-6-methylheptane] gave an Inhibition of 47%.
